Our source for the ATP turnover rate, stoichiometry N (αβ-tubulin dimers per Kif2A-NM) and stoichiometry N (Kif2A-MD per tubulin dimer (1:1)) values is PMC6035175, “Ternary complex of Kif2A-bound tandem tubulin heterodimers represents a kinesin-13-mediated microtubule depolymerization reaction intermediate” (Nature Communications, 2018).

For one experiment, the target named is T1, Kif2A-NM (Homo sapiens, UniProt O00139).
T1 construct: neck plus motor domain, residues 153-553, monomer, 48 kDa, His-tagged, from E. coli BL21(DE3) pLysS; studied with bovine brain tubulin (1:2 complex), crystal also holds DARPin D1; full length 706 residues; with Tubulin alpha chain (Bos taurus, brain); Tubulin beta chain (Bos taurus, brain)
T1 sequence (O00139 153-553): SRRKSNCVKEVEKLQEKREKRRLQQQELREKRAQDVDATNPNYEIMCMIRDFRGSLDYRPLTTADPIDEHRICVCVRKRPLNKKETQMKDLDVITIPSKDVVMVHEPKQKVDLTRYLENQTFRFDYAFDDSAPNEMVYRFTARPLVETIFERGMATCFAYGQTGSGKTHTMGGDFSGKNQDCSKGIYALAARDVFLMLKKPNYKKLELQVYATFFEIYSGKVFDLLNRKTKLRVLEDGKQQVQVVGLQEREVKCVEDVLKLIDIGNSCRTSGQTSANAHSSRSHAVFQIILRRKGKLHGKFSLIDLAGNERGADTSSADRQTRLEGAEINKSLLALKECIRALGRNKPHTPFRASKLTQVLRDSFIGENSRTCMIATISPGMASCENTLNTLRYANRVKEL
T1 sequence (P81947 whole entry partner, the tested form may be a part): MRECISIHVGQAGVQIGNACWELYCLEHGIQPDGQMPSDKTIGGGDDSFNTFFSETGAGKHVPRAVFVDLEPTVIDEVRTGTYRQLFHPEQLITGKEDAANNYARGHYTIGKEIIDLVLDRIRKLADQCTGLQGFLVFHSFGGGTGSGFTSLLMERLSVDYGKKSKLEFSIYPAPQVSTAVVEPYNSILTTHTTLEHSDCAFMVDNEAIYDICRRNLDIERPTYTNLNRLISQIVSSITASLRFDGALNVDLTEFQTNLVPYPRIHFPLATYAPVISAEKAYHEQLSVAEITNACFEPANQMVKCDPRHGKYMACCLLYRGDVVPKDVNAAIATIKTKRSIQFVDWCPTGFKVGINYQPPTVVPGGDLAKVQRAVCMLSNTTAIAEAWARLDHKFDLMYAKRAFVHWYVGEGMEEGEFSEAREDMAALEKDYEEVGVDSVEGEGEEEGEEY
T1 sequence (Q6B856 whole entry partner, the tested form may be a part): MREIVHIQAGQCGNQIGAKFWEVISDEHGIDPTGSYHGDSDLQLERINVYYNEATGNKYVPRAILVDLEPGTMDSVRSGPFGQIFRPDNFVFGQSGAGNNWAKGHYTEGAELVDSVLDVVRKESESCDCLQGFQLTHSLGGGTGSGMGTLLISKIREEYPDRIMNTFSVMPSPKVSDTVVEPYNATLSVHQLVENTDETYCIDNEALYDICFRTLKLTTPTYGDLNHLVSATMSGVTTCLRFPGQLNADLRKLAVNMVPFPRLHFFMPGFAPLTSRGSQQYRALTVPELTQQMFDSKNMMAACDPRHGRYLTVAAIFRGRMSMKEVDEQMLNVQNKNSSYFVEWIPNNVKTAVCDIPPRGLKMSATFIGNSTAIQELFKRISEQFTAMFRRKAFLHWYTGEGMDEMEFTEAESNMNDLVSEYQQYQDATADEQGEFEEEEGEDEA
In words: malachite green phosphate release ATPase assay. The class given is biochemical. Conditions: tubulin- or microtubule-stimulated; BRB80-based buffer pH 6.8, 1 mM MgCl2, 75 mM KCl; without DARPin.

For the next experiment, the target named is T2, Kif2A-MD (Homo sapiens, UniProt O00139).
T2 construct: motor domain without most of the neck, residues 203-554, pGex-6P1, PreScission-cleaved GST fusion; 1:1 complex with tubulin; with Tubulin alpha chain (Bos taurus, brain); Tubulin beta chain (Bos taurus, brain)
T2 sequence (O00139 203-554): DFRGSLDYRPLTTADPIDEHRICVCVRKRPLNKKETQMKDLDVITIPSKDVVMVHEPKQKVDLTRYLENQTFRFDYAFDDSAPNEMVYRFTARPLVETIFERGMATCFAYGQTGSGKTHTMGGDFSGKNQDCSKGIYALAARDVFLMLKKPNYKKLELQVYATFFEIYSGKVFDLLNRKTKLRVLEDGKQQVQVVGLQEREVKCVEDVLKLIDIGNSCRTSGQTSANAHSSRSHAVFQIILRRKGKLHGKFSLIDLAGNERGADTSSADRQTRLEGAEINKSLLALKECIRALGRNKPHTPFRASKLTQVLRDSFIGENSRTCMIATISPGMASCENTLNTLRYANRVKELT
T2 sequence (P81947 whole entry partner, the tested form may be a part): as the sequence (P81947 whole entry partner, the tested form may be a part) above
T2 sequence (Q6B856 whole entry partner, the tested form may be a part): as the sequence (Q6B856 whole entry partner, the tested form may be a part) above
In words: malachite green phosphate release ATPase assay. It counts as biochemical. To be noted: tubulin- or microtubule-stimulated; BRB80-based buffer pH 6.8, 1 mM MgCl2, 75 mM KCl; without DARPin.

Experiment [1] deals with αβ-tubulin heterodimer from bovine brain (bovine) (UniProt Q6B856). The experiment can be described thus: SEC-SAXS; in-line Superdex 200 10/300 GL, 20 mM HEPES, 150 mM NaCl, 1 mM MgCl2, pH 7.2; 25 μM tubulin, 27 μM DARPin, 20 μM Kif2A-NM, 0.1 mM AMPPNP; 270 kDa peak; 22 °C.
For experiment [2] the target is unchanged. The experiment can be described thus: not stated; Kif2A-MD with tubulin, shown in Supplementary Figure 6; method not given.

Chain of Kif2A-MD (human Kif2A motor domain without the neck, residues 203–554) (O00139 203-554): as the sequence (O00139 203-554) above
Chain of Kif2A-NM (human Kif2A neck plus motor domain, residues 153–553) (O00139 153-553): as the sequence (O00139 153-553) above

In the case of `Nc1ncnc2c1ncn2[C@@H]1O[C@H](COP(=O)(O)OP(=O)(O)OP(=O)(O)O)[C@@H](O)[C@H]1O` [ATP], the ATP turnover rate entry at Kif2A-NM is “ATP turnover rates of Kif2A-NM (orange) and Kif2A-MD (gray) in the presence of tubulin”; on Kif2A-MD, “ATP turnover rates of Kif2A-NM (orange) and Kif2A-MD (gray) in the presence of tubulin”.

In turn, “Kif2A-NM (human Kif2A neck plus motor domain, residues 153–553) (from UniProt O00139 153-553) (domain or fragment)” registered a stoichiometry N (αβ-tubulin dimers per Kif2A-NM) in experiment [1] of 2.

In the case of “Kif2A-MD (human Kif2A motor domain without the neck, residues 203–554) (from UniProt O00139 203-554) (domain or fragment)”, the stoichiometry N (Kif2A-MD per tubulin dimer (1:1)) in experiment [2] was 1.
